Assay results: BindingDB's records for patent US8933095 (Pfizer, 2015)

Target: Kynurenine/alpha-aminoadipate aminotransferase, mitochondrial (Homo sapiens, UniProt Q8N5Z0)
Assay: Inhibition Spectra Assay
Conditions: 37 °C
Method: Formation of kynurenic acid (KYNA) is indirectly assessed by a decrease in light absorbance at 370 nm (OD370) as the L-kynurenine (KYN) substrate is converted by the human KAT II (hKAT II) enzyme into KYNA. An inhibitor would therefore inhibit the decrease in OD370.The protocol was performed by placing the following reagents into a Costar 384 well black plate (30 uL total assay volume/well): 10 uL of 3x concentrated compound; 10 uL of 3x concentrated substrate mix (BGG (Sigma G-5009); 3 mM L-Kynurenine in 150 mM Tris Acetate (Sigma K3750); 3 mM alpha-ketoglutaric acid in 150 mM Tris Acetate (Sigma K2010); and 210 uM pyridoxal 5-phosphate (PLP) in 150 mM Tris Acetate (Sigma 9255)); and 10 uL of 3x concentrated enzyme (15 nM enzyme in 150 mM Tris Acetate with 0.3% bovine serum).Plates were sealed and incubated at 37 C. for 15-20 h before reading OD370 on a SpectraMax Plus plate reader.

Sequence of Kynurenine/alpha-aminoadipate aminotransferase, mitochondrial (Q8N5Z0 whole entry): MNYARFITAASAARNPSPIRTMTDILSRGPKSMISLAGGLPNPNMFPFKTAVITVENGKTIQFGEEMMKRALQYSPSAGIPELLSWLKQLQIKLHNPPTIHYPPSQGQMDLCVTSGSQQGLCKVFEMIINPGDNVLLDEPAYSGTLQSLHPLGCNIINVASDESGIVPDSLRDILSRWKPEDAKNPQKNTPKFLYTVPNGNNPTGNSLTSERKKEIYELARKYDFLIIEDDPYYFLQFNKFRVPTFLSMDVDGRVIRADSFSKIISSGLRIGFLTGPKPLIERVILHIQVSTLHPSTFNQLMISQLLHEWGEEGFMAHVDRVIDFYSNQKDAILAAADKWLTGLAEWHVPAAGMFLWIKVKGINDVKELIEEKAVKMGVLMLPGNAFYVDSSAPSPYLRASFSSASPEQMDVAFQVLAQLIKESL

Cn1nc2c(c1Cc1ccccc1)C[C@@H](N)C(=O)N2O [US8933095, 2]
IC50: 63.7 nM
